Measurements as given in patent publication EP4800008A1, “PYRAZOLE DERIVATIVE, OR ACCEPTABLE SALT THEREOF OR N-OXIDE THEREOF, AGRICULTURAL AND HORTICULTURAL CHEMICAL, AND INDUSTRIAL MATERIAL PROTECTANT” (Kureha Corporation, priority 2023, dated 2025).

How the values were obtained:
Zymoseptoria tritici = assay: Wheat leaf blight control efficacy test; format: in vivo; details: 12.5 ppm, as Test Example 4
Botrytis cinerea = assay: Cucumber gray mold control efficacy test; format: in vivo; details: as Test Example 2

Row | Structure (SMILES) | control efficacy (Zymoseptoria tritici) [%] | control efficacy (Botrytis cinerea; 12.5 ppm) [%] | control efficacy (Botrytis cinerea; 100 ppm) [%]
1 | CON(C(=O)c1cn(C)nc1C(F)F)C(C)Cc1ccc(C#CCOCc2ccccc2)cc1Cl (stereo not drawn) [Compound I-18] | 100 | – | –
2 | CON(C(=O)c1cn(C)nc1C(F)F)C(C)Cc1c(Cl)cc(Cl)cc1Cl (stereo not drawn) [Control compound C] | – | 65 | 97
